This note sets out measurements from US9975903B2, “Condensed heterocyclic compound” (Takeda Pharmaceutical Company Limited, priority 2014, dated 2018).

Counter-ions that a name gives are not always drawn.

T1 sequence (P98073 whole entry): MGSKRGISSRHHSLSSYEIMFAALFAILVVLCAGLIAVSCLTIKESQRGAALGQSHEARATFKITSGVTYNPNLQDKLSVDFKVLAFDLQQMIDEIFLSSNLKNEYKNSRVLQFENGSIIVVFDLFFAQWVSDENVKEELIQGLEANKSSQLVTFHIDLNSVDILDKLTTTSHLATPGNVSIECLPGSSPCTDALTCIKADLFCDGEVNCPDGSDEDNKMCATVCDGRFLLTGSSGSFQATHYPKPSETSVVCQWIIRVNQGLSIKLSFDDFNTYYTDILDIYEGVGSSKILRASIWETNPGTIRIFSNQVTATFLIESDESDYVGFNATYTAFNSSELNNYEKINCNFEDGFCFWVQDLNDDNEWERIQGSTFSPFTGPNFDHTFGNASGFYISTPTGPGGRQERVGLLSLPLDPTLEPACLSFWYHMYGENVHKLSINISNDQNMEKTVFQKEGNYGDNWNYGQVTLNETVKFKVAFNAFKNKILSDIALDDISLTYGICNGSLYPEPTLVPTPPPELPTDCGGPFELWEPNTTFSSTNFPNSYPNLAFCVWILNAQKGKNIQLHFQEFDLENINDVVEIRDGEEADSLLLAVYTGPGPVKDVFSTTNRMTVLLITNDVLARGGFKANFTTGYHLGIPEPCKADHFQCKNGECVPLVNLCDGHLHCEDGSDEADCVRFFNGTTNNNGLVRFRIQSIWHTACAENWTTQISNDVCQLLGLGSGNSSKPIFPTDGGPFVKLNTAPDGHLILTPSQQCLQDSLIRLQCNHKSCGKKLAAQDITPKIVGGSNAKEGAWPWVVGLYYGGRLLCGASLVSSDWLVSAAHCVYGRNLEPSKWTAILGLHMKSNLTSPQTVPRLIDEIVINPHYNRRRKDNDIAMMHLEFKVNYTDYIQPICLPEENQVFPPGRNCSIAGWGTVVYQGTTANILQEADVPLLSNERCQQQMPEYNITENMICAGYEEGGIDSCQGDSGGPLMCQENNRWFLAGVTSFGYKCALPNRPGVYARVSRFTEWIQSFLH

The assay has as its target T1, Human recombinant enteropeptidase (Homo sapiens, UniProt P98073).
T1 construct: purchased ITSI-Biosciences LLC #REN-260
The assay can be described thus: Human enteropeptidase inhibitory activity (Test Example 1). In kind it is biochemical. The following applies: 3.3 μM test compound; inhibition rate from fluorescence intensity at 2 hours after the start of the reaction; read-out: 3.3 μM Inhibition. As for the experimental part:
Human recombinant enteropeptidase (#REN-260, ITSI-Biosciences LLC) was diluted with an assay buffer (50 mM Tricine, pH 8.0, 0.01 (w/v) %, Tween 20, 10 mM CaCl2) to prepare a 24 mU/mL enzyme solution. Subsequently, 5FAM-Abu-Gly-Asp-Asp-Asp-Lys-Ile-Val-Gly-Gly-Lys(CPQ2)-Lys-Lys-NH2 (SEQ ID NO: 1, purity: 97.2%, CPC Scientific Inc.) was diluted with the assay buffer to prepare a 2.1 μM substrate solution. A test compound is dissolved in DMSO into a 1 mM solution, and the solution was diluted by 100-fold with the assay buffer to give a compound solution. To a 384-well black plate (#784076, Greiner Bio-One), 5 μL of the compound solution and 5 μL of the substrate solution were added and mixed, and 5 μL of the enzyme solution was then added to the mixture, followed by mixing to start the reaction. The fluorescence intensity was measured with a fluorescence plate reader EnVision (The Perkin-Elmer Corp.) at an excitation wavelength of 485 nm and a fluorescence wavelength of 535 nm. The same reaction as above except that the test compound was not contained was performed (test compound non-addition group). Furthermore, the same reaction as above except that the test compound and the enzyme were not contained was performed (control group). The inhibition rate was calculated using the fluorescence intensity at 2 hours after the start of the reaction by the following expression: Inhibition rate (%)=(1−((fluorescence intensity of test compound addition group)−(fluorescence intensity of control group))/((fluorescence intensity of test compound non-addition group)−(fluorescence intensity of control group)))×100
For the molecule `N=C(N)Nc1ccc2c(c1)CCCOc1c(cccc1C(=O)N(CCOCc1ccccc1)C(CC(=O)O)C(=O)O)OC2=O` (stereo not drawn) [Example 137], the inhibition (usually the relative decrease from the control value, in per cent) at 3.3 µM is 100%.

For the molecule `N=C(N)Nc1ccc2c(c1)CCCOc1c(cc(CCC(=O)O)cc1C(=O)N[C@@H](CC(=O)O)C(=O)O)OC2=O` [Example 117, N-((10-carbamimidamido-2-(2-carboxyethyl)-13-oxo-6,7,8,13-tetrahydro-dibenzo[b,f] [1,4]dioxecin-4-yl)carbonyl)-L-aspartic acid], the inhibition at 3.3 µM was determined as 100%.

Regarding `N=C(N)Nc1ccc2c(c1)CCCOc1c(cccc1C(=O)N(CC(=O)O)Cc1cccc(CN(CC(=O)O)CC(=O)O)n1)OC2=O` [Example 126, N-((6-((bis(carboxy-methyl)amino)methyl)pyridin-2-yl)methyl)-N-((10-carbamimidamido-13-oxo-6,7,8,13-tetrahydro-dibenzo[b,f] [1,4]dioxecin-4-yl)carbonyl)glycine], the inhibition at 3.3 µM worked out at 100%.

As for `N=C(N)Nc1ccc2c(c1)OCCOc1cc(CCC(=O)N[C@@H](CC(=O)O)C(=O)O)ccc1OC2=O` [Example 53, N-(3-(3-carbamimidamido-14-oxo-6,7-dihydro-14H-dibenzo[b,h][1,4,7]trioxecin-10-yl)propanoyl) aspartic acid], the inhibition at 3.3 µM was determined as 101%.

For the molecule `N=C(N)Nc1ccc2c(c1)CCCOc1c(CCC(=O)N[C@@H](CC(N)=O)C(=O)O)cccc1OC2=O` [Example 97, N^~2^~-(3-(10-carbamimidamido-13-oxo-6,7,8,13-tetrahydro-dibenzo[b,f] [1,4]dioxecin-4-yl)propanoyl)-L-asparagine], the inhibition at 3.3 µM was determined as 100%.

Regarding `N=C(N)Nc1ccc2c(c1)CCCOc1c(cccc1C(=O)N[C@@H](Cc1ccccc1)C(=O)O)OC2=O` [Example 87, N-((10-carbamimidamido-13-oxo-6,7,8,13-tetrahydro-dibenzo[b,f] [1,4]dioxecin-4-yl)carbonyl)-L-phenylalanine], the inhibition at 3.3 µM worked out at 101%.

Regarding `N=C(N)Nc1ccc2c(c1)CCCOc1c(cccc1C(=O)N[C@@H](Cc1ccc(O)cc1)C(=O)O)OC2=O` [Example 10, N-((10-carbamimidamido-13-oxo-6,7,8,13-tetrahydro-dibenzo[b,f] [1,4]dioxecin-4-yl)carbonyl)-L-tyrosine], the inhibition at 3.3 µM was 101%.

In the case of `N=C(N)Nc1ccc2c(c1)CCCc1cc(C(=O)N[C@@H](CC(=O)O)C(=O)O)ccc1OC2=O` [Example 73, N-((9-carbamimidamido-6-oxo-6,11,12,13-tetrahydro-dibenzo[b,g]oxonin-2-yl)carbonyl)-L-aspartic acid], the inhibition at 3.3 µM was 100%.

Consider `N=C(N)Nc1ccc2c(c1)CCCOc1c(cccc1C(=O)N(CCC(=O)O)Cc1cccc(C(=O)O)c1)OC2=O` [Example 134, 3-((((10-carbamimidamido-13-oxo-6,7,8,13-tetrahydro-dibenzo[b,f] [1,4]dioxecin-4-yl)carbonyl)(2-carboxyethyl)amino)methyl)benzoic acid], for which the inhibition at 3.3 µM is 100%.

`N=C(N)Nc1ccc2c(c1)CCCOc1c(cccc1C(=O)N(CC(=O)O)[C@@H](CC(N)=O)C(=O)O)OC2=O` [Example 65, N^2-((10-Carbamimidamido-13-oxo-6,7,8,13-tetrahydrodibenzo[b,f][1,4]dioxecin-4-yl)carbonyl)-N^2-(carboxymethyl)-L-asparagine]: the inhibition at 3.3 µM stood at 100%.

For the molecule `N=C(N)Nc1ccc2c(c1)CCCOc1c(ccc(CCC(=O)O)c1C(=O)N[C@@H](CC(=O)O)C(=O)O)OC2=O` [Example 110, N-((10-Carbamimidamido-3-(2-carboxyethyl)-13-oxo-6,7,8,13-tetrahydrodibenzo[b,f][1,4]dioxecin-4-yl)carbonyl)-L-aspartic acid], the inhibition at 3.3 µM amounted to 100%.

Regarding `N=C(N)Nc1ccc2c(c1)OCCCCOc1c(CCC(=O)N[C@@H](CC(=O)O)C(=O)O)cccc1OC2=O` [Example 42, N-(3-(3-Carbamimidamido-16-oxo-6,7,8,9-tetrahydro-16H-dibenzo[b,f][1,4,8]trioxacyclododecin-11-yl)propanoyl)aspartic acid trifluoroacetate], the inhibition at 3.3 µM turned out to be 100%.
